# Source: ChEMBL document CHEMBL4184317, “Discovery of Tetrahydroquinoxalines as Bromodomain and Extra-Terminal Domain (BET) Inhibitors with Selectivity for the Second Bromodomain” (J Med Chem, 2018)
# How the values were obtained:
# [1] = target: Bromodomain-containing protein 4 (Homo sapiens, UniProt O60885, Y97A)
# [2] = buffer, pH 7.4
# Description: Chromatographic hydrophobicity index, log D of the compound at pH 7.4 by HPLC method
# PBMC = experiment: cells; details: Homo sapiens, read-out: pIC50 (converted)
# Description: Antiinflammatory activity in human PBMC assessed as inhibition of LPS-induced MCP1 release preincubated for 30 mins followed by LPS challenge measured after 24 hrs by immunoassay
# [3] = target: Bromodomain-containing protein 4 (Homo sapiens, UniProt O60885, Y390A)
compound,measurement,setting,value
"CC(=O)N1c2ccccc2N(Cc2ccccc2CO)CC1C1CC1 (single isomer, unassigned)",IC50,[1],0.2 µM
same,logD,[2],4.7
same,IC50,PBMC,1 µM
same,IC50,[3],15.8 µM
